Reference: patent US9223210B2, “Photosensitive compound, photosensitive resin, and photosensitive composition” (TOYO GOSEI CO., LTD., priority 2012, dated 2015)

Legend:
[1] = Solubility in neutral water (Test Example 1); format: physicochemical; details: 100 g of neutral water, water temperature 20° C.
Method: (§1) Solubility of each of the photosensitive compounds produced in Comparative Synthesis Examples 1 to 2 and Examples 2 to 5 (comparative photosensitive materials H and I, and photosensitive materials C to F) in 100 g of neutral water (water temperature: 20° C.) was assessed. The solubility in an aqueous phosphoric acid solution (liquid temperature: 20° C.) obtained by mixing phosphoric acid (4 g) and water (100 g), was also determined.

[2] = Solubility in aqueous phosphoric acid solution (Test Example 1); format: physicochemical; details: for Solubility in aq. phosphoric acid solution (104 g): liquid temperature 20° C., amount dissolved (complete dissolution where stated); for Solubility in aqueous phosphoric acid solution (in words): summary of Table 1
Method: as §1

[3] = phosphoric acid (4 g) and water (100 g)

[N-]=[N+]=Nc1ccc(C=C(NC(=O)c2ccc(CN3CCOCC3)cc2)C(=O)NCCCC=O)cc1 [Photosensitive material F, 3-(4-azidophenyl)-N-(3-formylpropyl)-2-(4-morpholinomethylphenyl)carbonylamino-prop-2-enamide]
Solubility in water (100 g) [1]: ≦0.1 g
Solubility in aq. phosphoric acid solution (104 g) [2, 3]: 5 g (complete

COC(CCCNC(=O)C(=Cc1ccc(N=[N+]=[N-])cc1)NC(=O)c1ccc(CN2CCOCC2)cc1)OC [Photosensitive material C, 3-(4-azidophenyl)-N-(4,4′-dimethoxybutyl)-2-(4-morpholinomethylphenyl)carbonylamino-prop-2-enamide]
Solubility in water (100 g) [1]: ≦0.1 g
Solubility in aq. phosphoric acid solution (104 g) [2, 3]: 5 g (complete

3-(4-azidophenyl)-N-(4,4′-dimethoxybutyl)-2-(4-imidazolylmethylphenyl)carbonylamino-prop-2-enamide [Photosensitive material D]
Solubility in water (100 g) [1]: ≦0.1 g
Solubility in aq. phosphoric acid solution (104 g) [2, 3]: 5 g (complete

COC(CCCNC(=O)C(=Cc1cccnc1)NC(=O)C=Cc1ccc(N=[N+]=[N-])cc1)OC [Comp. Photosensitive material I, 2-(3-(4-azidophenyl)prop-2-enoylamino)-N-(4,4-dimethoxybutyl)-3-(3-pyridyl)prop-2-enamide]
Solubility in water (100 g) [1]: ≦0.1 g
Solubility in aq. phosphoric acid solution (104 g), partial dissolution ([2]; phosphoric acid (4 g) and water (100 g), 20° C., amount giving only partial dissolution): 0.4 g (partial
Solubility in aq. phosphoric acid solution (104 g) [2, 3]: 0.2 g (complete
Solubility in aqueous phosphoric acid solution (in words) [2]: lower than that of photosensitive materials C to F

COC(CCCNC(=O)C(=Cc1ccc(N=[N+]=[N-])cc1)NC(=O)c1ccccc1)OC [Comp. Photosensitive material H, 3-(4-azidophenyl)-N-(4,4′-dimethoxybutyl)-2-phenylcarbonylamino-prop-2-enamide]
Solubility in water (100 g) [1]: ≦0.1 g
Solubility in aq. phosphoric acid solution (104 g) [2, 3]: ≦0.1 g
Solubility in aqueous phosphoric acid solution (in words) [2]: very low solubility

C=CCN(CC=C)Cc1ccc(C(=O)NC(=Cc2ccc(N=[N+]=[N-])cc2)C(=O)NCCCC(OC)OC)cc1 [Photosensitive material E, 3-(4-azidophenyl)-N-(4,4′-dimethoxybutyl)-2-(4-diallylaminomethylphenyl)carbonylamino-prop-2-enamide]
Solubility in water (100 g) [1]: ≦0.1 g
Solubility in aq. phosphoric acid solution (104 g) [2, 3]: 5 g (complete
